Key:
rat [1] = test: concentration in expired air after dosing; negative times count back from the end of exposure; settings: dosed: 1,1-dichloroethylene, inhalation, duration: 3 hr, male, Sprague-Dawley
Mouse = test: concentration in plasma after dosing; settings: dosed: 2-Hydroxy-4-methoxybenzophenone, 100 mg/kg, oral, Male, B6C3F1
Rat [2] = test: concentration in plasma after dosing; settings: 20 min; dosed: Methyleugenol; 37 mg/kg; oral; Female; F344/N
Rat [3] = test: concentration in kidney after dosing; settings: 3 h; dosed: Perfluorohexane-1-sulphonic acid – potassium salt; 16 mg/kg; oral; Female; F344
Rat [4] = test: concentration in plasma after dosing; settings: 20 min; dosed: Pyridine; 10 mg/kg; iv; Male; F344
Rat [5] = test: concentration in plasma after dosing; settings: 5 min; dosed: alpha-Thujone; 25 mg/kg; oral; Male; Harlan Sprague Dawley
Rat [6] = test: concentration in plasma after dosing; settings: 10 min; dosed: alpha-Thujone; 50 mg/kg; oral; Female; Harlan Sprague Dawley

C=C(Cl)Cl [1,1-dichloroethylene]
rat [1]
Settings	concentration in expired air [ppm]
0.1527 h, 150 ppm	5.19
0.2485 h, 150 ppm	3.34
0.2565 h, 25 ppm	3.35
0.3921 h, 25 ppm	3.42
0.3921 h, 150 ppm	3.42
0.4997 h, 150 ppm	3.48
0.5037 h, 25 ppm	3.48
9 s, 150 ppm	121
88 s, 75 ppm	12.1
205 s, 75 ppm	6.41

rat [1], during exposure
Settings	concentration in expired air [ppm]
-15 s, 75 ppm	63.3
-2.933 h, 75 ppm	46.2
-2.927 h, 150 ppm	71.9
-2.926 h, 300 ppm	190
-2.925 h, 25 ppm	13.3
-2.861 h, 75 ppm	48.8
-2.858 h, 25 ppm	12.4
-2.856 h, 150 ppm	76.7
-2.798 h, 75 ppm	52.3
-2.794 h, 25 ppm	14.7
-2.792 h, 150 ppm	82.7
-2.733 h, 150 ppm	88.4
-2.73 h, 75 ppm	54.3
-2.726 h, 25 ppm	15
-2.658 h, 75 ppm	54.9
-2.654 h, 150 ppm	93.5
-2.651 h, 25 ppm	16.6
-2.599 h, 75 ppm	56.2
-2.595 h, 150 ppm	97.7
-2.591 h, 25 ppm	17.9
-2.539 h, 75 ppm	57.5
-2.535 h, 25 ppm	18.9
-2.531 h, 150 ppm	104
-2.475 h, 75 ppm	58.8
-2.46 h, 25 ppm	19.6
-2.456 h, 150 ppm	107
-2.408 h, 75 ppm	58.9
-2.4 h, 25 ppm	19.6
-2.396 h, 150 ppm	109
-2.336 h, 25 ppm	20.6
-2.336 h, 75 ppm	59.9
-2.336 h, 150 ppm	108
-2.26 h, 75 ppm	59.3
-2.257 h, 150 ppm	110
-2.256 h, 25 ppm	19.7
-2.197 h, 150 ppm	112
-2.196 h, 75 ppm	57.4
-2.189 h, 25 ppm	19.7
-2.137 h, 150 ppm	110
-2.129 h, 75 ppm	60.6
-2.125 h, 25 ppm	17.6
-2.061 h, 25 ppm	20.1
-2.061 h, 75 ppm	61
-2.058 h, 150 ppm	111
-1.998 h, 150 ppm	111
-1.997 h, 75 ppm	60.7
-1.993 h, 25 ppm	20.5
-1.858 h, 150 ppm	111
-1.857 h, 75 ppm	59.8
-1.854 h, 25 ppm	20.6
-1.738 h, 75 ppm	60.5
-1.735 h, 150 ppm	112
-1.73 h, 25 ppm	20.9
-1.598 h, 75 ppm	60.6
-1.595 h, 25 ppm	21.3
-1.595 h, 150 ppm	113
-1.484 h, 150 ppm	114
-1.483 h, 25 ppm	21.4
-1.479 h, 75 ppm	61.3
-1.344 h, 25 ppm	21.5
-1.344 h, 150 ppm	114
-1.343 h, 75 ppm	60.7
-1.209 h, 150 ppm	115
-1.208 h, 75 ppm	60.8
-1.204 h, 25 ppm	21.5
-1.085 h, 25 ppm	21.9
-1.085 h, 150 ppm	117
-1.08 h, 75 ppm	61.2
-1 s, 25 ppm	22.2
-0.9371 h, 25 ppm	21.7
-0.9328 h, 75 ppm	61.6
-0.9261 h, 150 ppm	117
-0.8014 h, 75 ppm	62.6
-0.7986 h, 150 ppm	119
-0.7936 h, 25 ppm	22.1
-0.6591 h, 150 ppm	118
-0.6578 h, 75 ppm	62
-0.6461 h, 25 ppm	21.2
-0.5396 h, 150 ppm	120
-0.5384 h, 75 ppm	63.7
-0.5345 h, 25 ppm	22.2
-0.399 h, 25 ppm	22.6
-0.3988 h, 75 ppm	63.1
-0.3961 h, 150 ppm	119
-0.2646 h, 150 ppm	120
-0.2633 h, 75 ppm	63.2
-0.2555 h, 25 ppm	22.1
-0.1359 h, 25 ppm	22.4
-0.1358 h, 75 ppm	63.9
-0.1331 h, 150 ppm	121

O=C(c1ccccc1)c1ccc(O)cc1O [2,4-Dihydroxybenzophenone]
Mouse
Settings	concentration in plasma [ng/mL]
0.25 h	352
2 h	173
2.5 min	64.5
3 h	105
10 min	161

C=CCc1ccc(OC)c(OC)c1 [Methyleugenol]
Settings	concentration in plasma [ng/mL]
Rat [2]	374

O=S(=O)([O-])C(F)(F)C(F)(F)C(F)(F)C(F)(F)C(F)(F)C(F)(F)F.[K+] [Perfluorohexane-1-sulphonic acid – potassium salt]
Settings	concentration in kidney [ng/g]
Rat [3]	29100

c1ccncc1 [Pyridine]
Settings	concentration in plasma [ng/mL]
Rat [4]	4020

CC(C)[C@]12CC(=O)[C@H](C)[C@H]1C2 [alpha-Thujone]
Settings	concentration in plasma [ng/mL]
Rat [5]	247
Rat [6]	835

Reference: EPA's CvTdb concentration-time database
